According to ChEMBL document CHEMBL3124829, “Discovery of SCH 900188: A Potent Hepatitis C Virus NS5B Polymerase Inhibitor Prodrug As a Development Candidate” (ACS Med Chem Lett, 2014):
Active and inactive are the calls of the source. No cut-off for these calls is given here.

Experiments:
Rattus norvegicus [1] = experiment: AUC (0 to 6 hrs) in rat assessed as 4-Fluoro-6-((7-fluoro-4-oxo-3,4-dihydroquinazolin-6-yl)methyl)-8-(2-oxo-1,2-dihydropyridin-3-yl)-6H-furo[2,3-e]indole-7-carboxylic acid at 10 mg/kg, po; format: ADME, organism-based, Plasma; set-up: time < 6 hr, dose 10 mg/kg, route oral; settings: in vivo
[2] = Inhibition of HCV genotype 1b C-terminal polyhistidine-tagged NS5B Cdelta21 RdRp expressed in Escherichia coli using DCoH75 as template assessed as incorporation of [33P]-CTP in polynucleotide sequence after 2 hrs by scintillation counting analysis; set-up: species or system Hepatitis C virus subtype 1b
Hepatitis C virus = experiment: Antiviral activity against HCV infected in human hepatoma cells assessed as inhibition of viral RNA replication after 3 days by real time PCR analysis; format: functional, organism-based, Hepacivirus hominis; settings: 72 h
[3] = AUC (0 to 6 hrs) in rat at 10 mg/kg, po; format: ADME, organism-based; set-up: time < 6 hr, dose 10 mg/kg, route oral; settings: plasma
[4] = AUC (0 to 24 hrs) in monkey at 3 mg/kg, po; format: ADME, organism-based, Macaca mulatta; set-up: time < 24 hr, dose 3 mg/kg, route oral; settings: rhesus monkey, plasma
[5] = Oral bioavailability in monkey; format: ADME, organism-based, Macaca mulatta; settings: rhesus monkey, in vivo
[6] = Cmax in rat; format: ADME, organism-based; settings: in vivo
[7] = Mutagenic activity in micronucleus (unknown origin); format: ADME
[8] = Inhibition of HCV genotype 4a C-terminal polyhistidine-tagged NS5B Cdelta21 RdRp expressed in Escherichia coli using DCoH75 as template assessed as incorporation of [33P]-CTP in polynucleotide sequence after 2 hrs by scintillation counting analysis; set-up: species or system Hepatitis C virus subtype 4a
[9] = Inhibition of HCV genotype 2a C-terminal polyhistidine-tagged NS5B Cdelta21 RdRp expressed in Escherichia coli using DCoH75 as template assessed as incorporation of [33P]-CTP in polynucleotide sequence after 2 hrs by scintillation counting analysis; set-up: species or system Hepatitis C virus subtype 2a
[10] = test system: RNA-directed RNA polymerase (Hepacivirus hominis), O39930 [C316Y]; experiment: Inhibition of HCV NS5B RdRp C316Y mutant active site
Sequence of RNA-directed RNA polymerase (Hepacivirus hominis), O39930 [C316Y] (O39930 entry or part of it C316Y): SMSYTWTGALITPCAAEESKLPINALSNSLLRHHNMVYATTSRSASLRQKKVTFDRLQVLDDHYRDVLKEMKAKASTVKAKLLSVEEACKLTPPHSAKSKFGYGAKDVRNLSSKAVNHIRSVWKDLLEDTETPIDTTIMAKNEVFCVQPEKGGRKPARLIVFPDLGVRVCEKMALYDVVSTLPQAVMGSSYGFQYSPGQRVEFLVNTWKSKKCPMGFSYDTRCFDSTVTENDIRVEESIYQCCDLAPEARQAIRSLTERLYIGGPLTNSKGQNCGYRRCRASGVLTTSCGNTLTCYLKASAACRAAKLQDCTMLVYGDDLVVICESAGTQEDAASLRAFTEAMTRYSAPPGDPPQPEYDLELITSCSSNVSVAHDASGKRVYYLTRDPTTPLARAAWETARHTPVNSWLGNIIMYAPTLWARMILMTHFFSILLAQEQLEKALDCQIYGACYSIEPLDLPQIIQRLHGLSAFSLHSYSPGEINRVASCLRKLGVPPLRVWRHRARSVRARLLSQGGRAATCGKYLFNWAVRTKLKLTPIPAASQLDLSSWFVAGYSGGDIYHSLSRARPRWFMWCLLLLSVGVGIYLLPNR

[11] = Clearance in iv dosed monkey; format: ADME, organism-based, Macaca mulatta; settings: rhesus monkey, in vivo
[12] = Oral bioavailability in rat; format: ADME, organism-based; settings: in vivo
[13] = Half life in dog at 1 mg/kg, iv; format: ADME, organism-based, Canis lupus familiaris; set-up: dose 1 mg/kg, route intravenous; settings: in vivo
[14] = Half life in rat at 3 mg/kg, iv; format: ADME, organism-based; set-up: dose 3 mg/kg, route intravenous; settings: in vivo
[15] = Cmax in monkey; format: ADME, organism-based, Macaca mulatta; settings: rhesus monkey, in vivo
[16] = Half life in monkey at 1 mg/kg, iv; format: ADME, organism-based, Macaca mulatta; set-up: dose 1 mg/kg, route intravenous; settings: rhesus monkey, in vivo
[17] = test system: RNA-directed RNA polymerase (Hepacivirus hominis), O39930 [M414T]; experiment: Inhibition of HCV NS5B RdRp M414T mutant active site
Sequence of RNA-directed RNA polymerase (Hepacivirus hominis), O39930 [M414T] (O39930 entry or part of it M414T): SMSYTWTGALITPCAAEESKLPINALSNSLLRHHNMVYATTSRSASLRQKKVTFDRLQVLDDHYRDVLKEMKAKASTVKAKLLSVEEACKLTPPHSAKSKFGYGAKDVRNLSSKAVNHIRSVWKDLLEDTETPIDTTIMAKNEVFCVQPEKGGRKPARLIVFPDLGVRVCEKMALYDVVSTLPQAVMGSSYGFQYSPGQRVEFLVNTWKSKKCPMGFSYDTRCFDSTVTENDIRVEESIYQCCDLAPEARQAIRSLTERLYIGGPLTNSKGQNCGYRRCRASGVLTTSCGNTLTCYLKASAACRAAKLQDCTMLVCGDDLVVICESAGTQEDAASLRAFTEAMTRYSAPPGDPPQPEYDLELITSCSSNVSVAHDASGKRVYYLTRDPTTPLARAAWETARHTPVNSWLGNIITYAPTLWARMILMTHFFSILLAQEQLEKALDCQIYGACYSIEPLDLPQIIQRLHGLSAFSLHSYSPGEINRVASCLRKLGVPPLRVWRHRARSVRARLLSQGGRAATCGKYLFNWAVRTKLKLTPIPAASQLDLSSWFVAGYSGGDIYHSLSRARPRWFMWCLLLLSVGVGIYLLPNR

[18] = Clearance in iv dosed rat; format: ADME, organism-based; settings: in vivo
[19] = test system: RNA-directed RNA polymerase (Hepacivirus hominis), O39930 [G554D]; experiment: Inhibition of HCV NS5B RdRp G554D mutant palm allosteric site
Sequence of RNA-directed RNA polymerase (Hepacivirus hominis), O39930 [G554D] (O39930 entry or part of it G554D): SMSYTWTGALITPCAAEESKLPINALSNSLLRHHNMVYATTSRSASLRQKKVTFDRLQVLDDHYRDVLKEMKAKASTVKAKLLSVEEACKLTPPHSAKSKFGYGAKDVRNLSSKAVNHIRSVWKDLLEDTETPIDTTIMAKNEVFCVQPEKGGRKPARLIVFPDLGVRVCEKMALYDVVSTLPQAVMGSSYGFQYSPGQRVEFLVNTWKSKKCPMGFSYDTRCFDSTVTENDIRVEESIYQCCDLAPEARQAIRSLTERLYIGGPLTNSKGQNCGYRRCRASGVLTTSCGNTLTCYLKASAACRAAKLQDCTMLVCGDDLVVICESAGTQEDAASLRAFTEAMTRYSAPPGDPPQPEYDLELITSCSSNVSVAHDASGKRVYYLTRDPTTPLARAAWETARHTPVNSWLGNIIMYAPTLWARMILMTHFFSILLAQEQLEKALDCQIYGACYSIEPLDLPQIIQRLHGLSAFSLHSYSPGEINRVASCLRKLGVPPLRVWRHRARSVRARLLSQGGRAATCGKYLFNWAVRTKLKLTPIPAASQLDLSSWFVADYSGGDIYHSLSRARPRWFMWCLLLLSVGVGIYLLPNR

[20] = AUC (0 to 24 hrs) in dog at 3 mg/kg, po; format: ADME, organism-based, Canis lupus familiaris; set-up: time < 24 hr, dose 3 mg/kg, route oral; settings: plasma
[21] = test system: RNA-directed RNA polymerase (Hepacivirus hominis), O39930 [G554D]; experiment: Inhibition of HCV NS5B RdRp G554D mutant active site
Salmonella typhimurium = experiment: Mutagenic activity in Salmonella typhimurium by mini Ames test; format: toxicity, organism-based; settings: salmonella enterica subsp. enterica serovar typhimurium
[22] = Clearance in iv dosed dog; format: ADME, organism-based, Canis lupus familiaris; settings: in vivo
[23] = Inhibition of HCV genotype 1a C-terminal polyhistidine-tagged NS5B Cdelta21 RdRp expressed in Escherichia coli using DCoH75 as template assessed as incorporation of [33P]-CTP in polynucleotide sequence after 2 hrs by scintillation counting analysis; set-up: species or system Hepatitis C virus subtype 1a
[24] = test system: RNA-directed RNA polymerase (Hepacivirus hominis), O39930 [C316Y]; experiment: Inhibition of HCV NS5B RdRp C316Y mutant palm allosteric site
[25] = Oral bioavailability in dog; format: ADME, organism-based, Canis lupus familiaris; settings: in vivo
[26] = Inhibition of HCV genotype 3a C-terminal polyhistidine-tagged NS5B Cdelta21 RdRp expressed in Escherichia coli using DCoH75 as template assessed as incorporation of [33P]-CTP in polynucleotide sequence after 2 hrs by scintillation counting analysis; set-up: species or system Hepatitis C virus subtype 3a
[27] = test system: RNA-directed RNA polymerase (Hepacivirus hominis), O39930 [M414T]; experiment: Inhibition of HCV NS5B RdRp M414T mutant palm allosteric site
[28] = Cmax in dog; format: ADME, organism-based, Canis lupus familiaris; settings: in vivo
[29] = AUC (0 to 24 hrs) in rat at 10 mg/kg, po; format: ADME, organism-based; set-up: time < 24 hr, dose 10 mg/kg, route oral; settings: plasma
Canis familiaris [30] = species on record: Canis familiaris; experiment: Cmax in dog assessed as 4-Fluoro-6-((7-fluoro-4-oxo-3,4-dihydroquinazolin-6-yl)methyl)-8-(2-oxo-1,2-dihydropyridin-3-yl)-6H-furo[2,3-e]indole-7-carboxylic acid; format: ADME, organism-based, Canis lupus familiaris; settings: in vivo
Canis familiaris [31] = experiment: Oral bioavailability in dog assessed as 4-Fluoro-6-((7-fluoro-4-oxo-3,4-dihydroquinazolin-6-yl)methyl)-8-(2-oxo-1,2-dihydropyridin-3-yl)-6H-furo[2,3-e]indole-7-carboxylic acid; format: ADME, organism-based, Canis lupus familiaris; settings: in vivo
[32] = Solubility of the compound at pH 3; format: physicochemical; settings: buffer
Rhesus monkey [33] = experiment: Oral bioavailability in monkey assessed as 4-Fluoro-6-((7-fluoro-4-oxo-3,4-dihydroquinazolin-6-yl)methyl)-8-(2-oxo-1,2-dihydropyridin-3-yl)-6H-furo[2,3-e]indole-7-carboxylic acid; format: ADME, organism-based, Macaca mulatta; settings: in vivo
Rhesus monkey [34] = experiment: AUC (0 to 24 hrs) in monkey assessed as 4-Fluoro-6-((7-fluoro-4-oxo-3,4-dihydroquinazolin-6-yl)methyl)-8-(2-oxo-1,2-dihydropyridin-3-yl)-6H-furo[2,3-e]indole-7-carboxylic acid at 3 mg/kg, po; format: ADME, organism-based, Macaca mulatta, Plasma; set-up: time < 24 hr, dose 3 mg/kg, route oral; settings: in vivo
Rattus norvegicus [35] = species on record: Rattus norvegicus; experiment: Cmax in rat assessed as 4-Fluoro-6-((7-fluoro-4-oxo-3,4-dihydroquinazolin-6-yl)methyl)-8-(2-oxo-1,2-dihydropyridin-3-yl)-6H-furo[2,3-e]indole-7-carboxylic acid; format: ADME, organism-based; settings: in vivo
Canis familiaris [36] = experiment: Half life in dog assessed as 4-Fluoro-6-((7-fluoro-4-oxo-3,4-dihydroquinazolin-6-yl)methyl)-8-(2-oxo-1,2-dihydropyridin-3-yl)-6H-furo[2,3-e]indole-7-carboxylic acid at 1 mg/kg, iv; format: ADME, organism-based, Canis lupus familiaris; set-up: dose 1 mg/kg, route intravenous; settings: in vivo
Rattus norvegicus [37] = experiment: AUC (0 to 24 hrs) in rat assessed as 4-Fluoro-6-((7-fluoro-4-oxo-3,4-dihydroquinazolin-6-yl)methyl)-8-(2-oxo-1,2-dihydropyridin-3-yl)-6H-furo[2,3-e]indole-7-carboxylic acid at 10 mg/kg, po; format: ADME, organism-based, Plasma; set-up: time < 24 hr, dose 10 mg/kg, route oral; settings: in vivo
Rattus norvegicus [38] = species on record: Rattus norvegicus; experiment: Ratio of drug level from liver to plasma in rat assessed as 4-Fluoro-6-((7-fluoro-4-oxo-3,4-dihydroquinazolin-6-yl)methyl)-8-(2-oxo-1,2-dihydropyridin-3-yl)-6H-furo[2,3-e]indole-7-carboxylic acid after 6 hrs; settings: other tissue
Rattus norvegicus [39] = experiment: Oral bioavailability in rat assessed as 4-Fluoro-6-((7-fluoro-4-oxo-3,4-dihydroquinazolin-6-yl)methyl)-8-(2-oxo-1,2-dihydropyridin-3-yl)-6H-furo[2,3-e]indole-7-carboxylic acid; format: ADME, organism-based; settings: in vivo
Canis familiaris [40] = experiment: AUC (0 to 24 hrs) in dog assessed as 4-Fluoro-6-((7-fluoro-4-oxo-3,4-dihydroquinazolin-6-yl)methyl)-8-(2-oxo-1,2-dihydropyridin-3-yl)-6H-furo[2,3-e]indole-7-carboxylic acid at 3 mg/kg, po; format: ADME, organism-based, Canis lupus familiaris, Plasma; set-up: time < 24 hr, dose 3 mg/kg, route oral; settings: in vivo
Rattus norvegicus [41] = experiment: Half life in rat assessed as 4-Fluoro-6-((7-fluoro-4-oxo-3,4-dihydroquinazolin-6-yl)methyl)-8-(2-oxo-1,2-dihydropyridin-3-yl)-6H-furo[2,3-e]indole-7-carboxylic acid at 3 mg/kg, iv; format: ADME, organism-based; set-up: dose 3 mg/kg, route intravenous; settings: in vivo
Rhesus monkey [42] = experiment: Cmax in monkey assessed as 4-Fluoro-6-((7-fluoro-4-oxo-3,4-dihydroquinazolin-6-yl)methyl)-8-(2-oxo-1,2-dihydropyridin-3-yl)-6H-furo[2,3-e]indole-7-carboxylic acid; format: ADME, organism-based, Macaca mulatta; settings: in vivo
Rhesus monkey [43] = experiment: Half life in monkey assessed as 4-Fluoro-6-((7-fluoro-4-oxo-3,4-dihydroquinazolin-6-yl)methyl)-8-(2-oxo-1,2-dihydropyridin-3-yl)-6H-furo[2,3-e]indole-7-carboxylic acid at 1 mg/kg, iv; format: ADME, organism-based, Macaca mulatta; set-up: dose 1 mg/kg, route intravenous; settings: in vivo

CCOC(=O)c1c(-c2ccc[nH]c2=O)c2c3occc3c(F)cc2n1Cc1cc2c(=O)[nH]cnc2cc1F
AUC (Rattus norvegicus [1]): 0.22 µM·h
IC50 [2]: 0.009 µM
EC50 (Hepatitis C virus): 0.022 µM

CN(C)CCCCOC(=O)c1c(-c2ccc[nH]c2=O)c2c3occc3c(F)cc2n1Cc1cc2c(=O)[nH]cnc2cc1F
AUC (Rattus norvegicus [1]): 0.79 µM·h
IC50 [2]: 0.075 µM
EC50 (Hepatitis C virus): 0.014 µM

Nc1nc2cc(F)c(Cn3c(C(=O)O)c(-c4ccc[nH]c4=O)c4c5occc5c(F)cc43)cc2c(=O)[nH]1
AUC(0-t) at 6 h [3]: 0.02 µM·h
IC50 [2]: 0.007 µM
EC50 (Hepatitis C virus): 0.007 µM

O=C(O)c1c(-c2ccc[nH]c2=O)c2c3occc3c(F)cc2n1Cc1cc2c(=O)[nH]cnc2cc1F
AUC(0-t) at 24 h [4]: 8 µM·h
bioavailability [5]: 5%
Cmax [6]: 1400 nM
Activity [7]: Non-toxic
IC50 [8]: > 5 µM
IC50 [9]: > 5 µM
inhibition [10]: Active
clearance [11]: 0.6 mL/min/kg
bioavailability [12]: 0.7%
AUC(0-t) at 6 h [3]: 4.3 µM·h
half-life [13]: 3.2 h
IC50 [2]: 0.005 µM
half-life [14]: 9.4 h
Cmax [15]: 800 nM
half-life [16]: 8.9 h
inhibition [17]: Active
clearance [18]: 0.2 mL/min/kg
inhibition [19]: inactive
AUC(0-t) at 24 h [20]: 0.4 µM·h
inhibition [21]: Active
Activity (Salmonella typhimurium): Non-toxic
clearance [22]: 11 mL/min/kg
IC50 [23]: 0.007 µM
inhibition [24]: inactive
bioavailability [25]: 4%
IC50 [26]: > 5 µM
inhibition [27]: inactive
Cmax [28]: 100 nM
AUC(0-t) at 24 h [29]: 10 µM·h
EC50 (Hepatitis C virus): 0.006 µM

CC(=O)c1ccc(F)c(Cn2c(C(=O)O)c(-c3ccc[nH]c3=O)c3c4occc4c(F)cc32)c1
AUC(0-t) at 6 h [3]: 8.8 µM·h
IC50 [2]: 0.02 µM
EC50 (Hepatitis C virus): 0.07 µM

CN(C)CCOC(=O)c1c(-c2ccc[nH]c2=O)c2c3occc3c(F)cc2n1Cc1cc2c(=O)[nH]cnc2cc1F.Cl
Cmax (Canis familiaris [30]): 800 nM
F (Canis familiaris [31]): 29%
solubility [32]: 900 µM
Activity [7]: Non-toxic
inhibition [10]: Active
F (Rhesus monkey [33]): 63%
AUC (Rhesus monkey [34]): 144 µM·h
IC50 [2]: 0.15 µM
Cmax (Rattus norvegicus [35]): 2100 nM
t1/2 (Canis familiaris [36]): 4 h
inhibition [17]: Active
AUC (Rattus norvegicus [37]): 22 µM·h
Ratio (Rattus norvegicus [38]): 0.5
inhibition [19]: inactive
F (Rattus norvegicus [39]): 2%
AUC (Canis familiaris [40]): 2.4 µM·h
inhibition [21]: Active
t1/2 (Rattus norvegicus [41]): 11 h
Cmax (Rhesus monkey [42]): 4100 nM
Activity (Salmonella typhimurium): Non-toxic
inhibition [24]: inactive
t1/2 (Rhesus monkey [43]): 22 h
inhibition [27]: inactive
EC50 (Hepatitis C virus): 0.005 µM

O=C(O)c1c(-c2ccc[nH]c2=O)c2c3occc3c(F)cc2n1Cc1cc2c(=O)[nH]c(=O)[nH]c2cc1F
AUC(0-t) at 6 h [3]: 8.3 µM·h
IC50 [2]: 0.004 µM
EC50 (Hepatitis C virus): 0.006 µM

NC(=O)c1ccc(F)c(Cn2c(C(=O)NS(=O)(=O)C3CC3)c(-c3ccc[nH]c3=O)c3c4occc4c(F)cc32)c1
AUC(0-t) at 6 h [3]: 0.21 µM·h
IC50 [2]: 0.005 µM
EC50 (Hepatitis C virus): 0.01 µM

CN(C)CCCOC(=O)c1c(-c2ccc[nH]c2=O)c2c3occc3c(F)cc2n1Cc1cc2c(=O)[nH]cnc2cc1F
AUC (Rattus norvegicus [1]): 2.3 µM·h
IC50 [2]: 0.11 µM
Ratio (Rattus norvegicus [38]): 0.4
EC50 (Hepatitis C virus): 0.011 µM
